Assay results as given in ChEMBL document CHEMBL2311430, “Sirtuins as emerging anti-parasitic targets” (Eur J Med Chem, 2013).
Numbered stars: 1 amine (or outer) side, 2 acyl side, 3 side chain; on linkers, the order of the positions; unused ones are H or OH. Bridge positions count the residues as written; N and C are the ends. Square brackets hold non-standard residues; d marks the D form. Peptide text beside a SMILES is read from it. X1 = CC(C)CCCCCCCCC[C@H](CC(=O)[*:1])O[*:2]

Key:
[1] = target: T1, Putative silent information regulator 2 (Leishmania infantum, UniProt A0A6L0XH39); assay: Inhibition of Leishmania infantum SIR2RP1
T1 sequence (A0A6L0XH39 whole entry): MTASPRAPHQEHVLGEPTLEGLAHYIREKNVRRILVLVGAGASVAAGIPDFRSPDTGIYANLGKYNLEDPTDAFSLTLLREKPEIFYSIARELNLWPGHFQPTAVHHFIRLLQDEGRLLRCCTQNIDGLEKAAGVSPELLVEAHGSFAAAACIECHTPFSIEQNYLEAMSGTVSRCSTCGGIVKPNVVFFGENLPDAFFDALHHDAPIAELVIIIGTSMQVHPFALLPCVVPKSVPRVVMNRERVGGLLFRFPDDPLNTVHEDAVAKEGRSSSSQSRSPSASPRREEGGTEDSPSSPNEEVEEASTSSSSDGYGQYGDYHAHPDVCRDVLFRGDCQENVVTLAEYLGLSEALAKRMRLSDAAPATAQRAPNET

[2] = Inhibition of Plasmodium falciparum NAD-dependent protein deacetylase Sir2A

SMILES	IC50 [1] [µM]	IC50 [2] [µM]
CC(C)CCCCCCCCC[C@@H]1CC(=O)N[C@@H](CCC(=O)O)C(=O)N[C@@H](CC(C)C)C(=O)N[C@H](CC(C)C)C(=O)N[C@@H](C(C)C)C(=O)N[C@@H](CC(=O)O)C(=O)N[C@H](CC(C)C)C(=O)N[C@@H](CC(C)C)C(=O)O1 [SURFACTIN] (EL[dL]VD[dL]L; linker N-C via X1)	35.2	–
NC(=O)c1cccnc1 [NIACINAMIDE]	39.4	51.2
O=C1c2cccc3cccc(c23)C(=O)N1CCCNCCCCCCCCCNCCCN1C(=O)c2cccc3cccc(c23)C1=O [BNIPDANON]	5.7	–

Now from value to compound, other results behind:

IC50 [1] [µM]	SMILES	IC50 [2] [µM]
9.2	O=C1c2cccc3cccc(c23)C(=O)N1CCCNCCCCCCCCNCCCN1C(=O)c2cccc3cccc(c23)C1=O [BNIPDAOCT]	–
194	CC(NC(=O)c1ccccc1/N=C/c1c(O)ccc2ccccc12)c1ccccc1 (stereo unspecified) [SIRTINOL]	–
